# Test results published in patent US9295641B2, “Compositions containing alpha-2-adrenergic agonist components” (Allergan, Inc., priority 2000, dated 2016).
# Like-named read-outs stand apart in the source and are kept apart here.
# Tests used:
# [1] = physchem
# [2] = 23° C.
# Description: The pH-solubility profile of brimonidine tartrate in an aqueous formulation (Ophthalmic Solution) was established in the pH range of about 5 to about 8 at 23° C. Table 1. […] Likewise, the temperature may be varied somewhat, for example, solubility curves may be performed at room temperature.
# The formulation vehicle was prepared by first dissolving polyvinyl alcohol (PVA) in water. The PVA was added to approximately ⅓ of the required total amount of purified water with constant stirring. The slurry was stirred for 20-30 minutes and then heated to 80-95° C. with constant stirring. The mixture was removed from the heat source within 1 hour after having reached the temperature of 80-90° C. and stirred for an additional 10 minutes to ensure homogeneity (Part I). The other ingredients of the Ophthalmic Solution, except for brimonidine tartrate, were dissolved in a separate container with an additional ⅓ of the required total amount of purified water (Part II). The PVA mixture (Part I) was then quantitatively transferred to Part II using several rinse volumes of purified water. The solution was adjusted to final volume with purified water without pH adjustment.
# Brimonidine tartrate was weighed and transferred to a 10 mL test tube containing 5 mL of the formulation vehicle described above. The pH of each sample was then adjusted to a desired value using dilute sodium hydroxide and/or dilute hydrochloric acid. The samples were placed in a rack on a stir plate and stirred at high speed to achieve uniform mixing for 2 days; a partition was placed between the rack and the stir plate to prevent any heat diffusion from the stir plate to the samples.
# At the end of two days of stirring, the pH value of each sample was measured, and then approximately 1 mL of each sample was placed in a micro centrifuge tube (polypropylene) and centrifuged at 4,000 rpm for 10 minutes. The supernatant was filtered through a 1 μm filter unit (Whatman, […], PTFE). The first 3-4 drops of the filtrate were discarded; the rest of the filtrate was received and diluted quantitatively with HPLC mobile phase. The dilute sample was then injected directly on the HPLC column (Dupont Zorbax, 250 mm×4.6 mm, 5 μm) for brimonidine tartrate assay in order to quantify the amount of brimonidine tartrate. A control of 0.5% brimonidine tartrate was prepared in the same formulation vehicle at pH 6.3-6.5 and assayed before (untreated) and after (treated) centrifugation and filtration. This was done to evaluate the potential loss of brimonidine tartrate in these two steps of the sample preparation. To ensure reproducibility, the study was repeated on consecutive days.
# [3] = for Solubility of Brimonidine tartrate: fifteen days
# Description: The effect of pH on the solubility of brimonidine tartrate in liquid formulations with and without SECs was determined. Particularly, the effect of the presence or absence of various concentrations of an exemplary SEC, sodium carboxymethylcellulose (CMC), on the solubility of brimonidine tartrate at various pH conditions was determined. The various concentrations of CMC tested with Brimonidine tartrate were 0%, 0.056%, 0.17%, 0.5%, 1.5% (w/v), see Table III.
# The samples tested also contained isotonic components, buffer components, and stabilized chlorine dioxide (Purite™), Table III. Sodium carboxymethylcellulose, sodium chloride, potassium chloride, calcium chloride dihydrate, and magnesium chloride hexahydrate were USP grade. Boric acid and sodium borate decahydrate were NF grade.
# Each sample (1 through 5) was brought to various points within a range of pH values from about 7 to about 10. The vials containing the sample solutions were placed on a laboratory rotator and left to equilibrate for fifteen days at 21° C. The sample solutions were filtered using a 25 mm diameter polysulfone cellulose acetate syringe type filter with 0.45 μm pore size. The filtered solutions were assayed for the amount of brimonidine tartrate in solution.
# Conventional HPLC and detection techniques were used to detect and determine the concentrations of soluble brimonidine tartrate. Solubility is plotted against pH for each CMC concentration. The experimental data points were fitted to a modified Henderson-Hasselbalch equation using a nonlinear least squares routine (Deltagraph version 4.0 DeltaPoint, Inc.), See FIG. 1.
# [4] = composition including chlorite, equilibrated ten days
# Description: Brimonidine tartrate is added to a test tube containing a composition including chlorite. The test tube was allowed to equilibrate for ten days. Samples obtained from the test tube are analyzed by HPLC using a size exclusion column in the presence or absence of a chaotrope, such as urea.
compound,measurement,setting,value
Brc1c(NC2=NCCN2)ccc2nccnc12 [5-bromo-6-(2-imidozolin-2-ylamino)quinoxaline],pKa,[1],~7.4
5-bromo-6-(2-imidozolin-2-ylamino)quinoxaline tartrate [Brimonidine tartrate],Solubility,"[2]; STUDY 1, pH 5.55, Ophthalmic Solution, theoretical concentration based on sample weight, solution clear",> 16.44^b mgml^−1
same,Solubility,"[2]; STUDY 1, pH 5.92, Ophthalmic Solution",13.26 mgml^−1
same,Solubility,"[2]; STUDY 1, pH 6.14, Ophthalmic Solution",3.04 mgml^−1
same,Solubility,"[2]; STUDY 1, pH 6.57, Ophthalmic Solution",0.755 mgml^−1
same,Solubility,"[2]; STUDY 1, pH 7.00, Ophthalmic Solution",0.269 mgml^−1
same,Solubility,"[2]; STUDY 1, pH 7.45, Ophthalmic Solution",0.117 mgml^−1
same,Solubility,"[2]; STUDY 1, pH 7.83, Ophthalmic Solution",0.062 mgml^−1
same,Solubility,"[2]; STUDY 2, pH 5.50, Ophthalmic Solution, theoretical concentration based on sample weight, solution clear",> 20.06^b mgml^−1
same,Solubility,"[2]; STUDY 2, pH 5.92, Ophthalmic Solution",16.08 mgml^−1
same,Solubility,"[2]; STUDY 2, pH 6.06, Ophthalmic Solution",5.01 mgml^−1
same,Solubility,"[2]; STUDY 2, pH 6.90, Ophthalmic Solution",0.319 mgml^−1
same,Solubility,"[2]; STUDY 2, pH 7.40, Ophthalmic Solution",0.119 mgml^−1
same,Solubility,"[2]; STUDY 2, pH 7.77, Ophthalmic Solution",0.063 mgml^−1
same,Solubility,"[2]; STUDY 2, pH 7.86, Ophthalmic Solution",0.058 mgml^−1
same,Solubility,"[2]; STUDY 2, pH 7.88, Ophthalmic Solution",0.054 mgml^−1
same,Solubility of Brimonidine tartrate,"[3]; 0% CMC, pH 7.11, 21° C.",0.2064 % w/v
same,Solubility of Brimonidine tartrate,"[3]; 0% CMC, pH 7.68, 21° C.",0.0786 % w/v
same,Solubility of Brimonidine tartrate,"[3]; 0% CMC, pH 8.50, 21° C.",0.0286 % w/v
same,Solubility of Brimonidine tartrate,"[3]; 0% CMC, pH 10.09, 21° C.",0.0218 % w/v
same,Solubility of Brimonidine tartrate,"[3]; 0.056% CMC, pH 6.67, 21° C.",0.9302 % w/v
same,Solubility of Brimonidine tartrate,"[3]; 0.056% CMC, pH 7.11, 21° C.",0.2828 % w/v
same,Solubility of Brimonidine tartrate,"[3]; 0.056% CMC, pH 7.77, 21° C.",0.0721 % w/v
same,Solubility of Brimonidine tartrate,"[3]; 0.056% CMC, pH 9.93, 21° C.",0.0234 % w/v
same,Solubility of Brimonidine tartrate,"[3]; 0.17% CMC, pH 6.68, 21° C.",1.4200 % w/v
same,Solubility of Brimonidine tartrate,"[3]; 0.17% CMC, pH 6.93, 21° C.",0.7302 % w/v
same,Solubility of Brimonidine tartrate,"[3]; 0.17% CMC, pH 7.81, 21° C.",0.0735 % w/v
same,Solubility of Brimonidine tartrate,"[3]; 0.17% CMC, pH 8.55, 21° C.",0.0328 % w/v
same,Solubility of Brimonidine tartrate,"[3]; 0.17% CMC, pH 10.05, 21° C.",0.0241 % w/v
same,Solubility of Brimonidine tartrate,"[3]; 0.5% CMC, pH 6.67, 21° C.",1.4464 % w/v
same,Solubility of Brimonidine tartrate,"[3]; 0.5% CMC, pH 7.10, 21° C.",0.3693 % w/v
same,Solubility of Brimonidine tartrate,"[3]; 0.5% CMC, pH 7.56, 21° C.",0.1451 % w/v
same,Solubility of Brimonidine tartrate,"[3]; 0.5% CMC, pH 8.46, 21° C.",0.0313 % w/v
same,Solubility of Brimonidine tartrate,"[3]; 0.5% CMC, pH 9.94, 21° C.",0.0250 % w/v
same,Solubility of Brimonidine tartrate,"[3]; 1.5% CMC, pH 6.68, 21° C.",1.4256 % w/v
same,Solubility of Brimonidine tartrate,"[3]; 1.5% CMC, pH 7.35, 21° C.",0.1904 % w/v
same,Solubility of Brimonidine tartrate,"[3]; 1.5% CMC, pH 8.10, 21° C.",0.0498 % w/v
same,Solubility of Brimonidine tartrate,"[3]; 1.5% CMC, pH 8.67, 21° C.",0.0311 % w/v
same,Solubility of Brimonidine tartrate,"[3]; 1.5% CMC, pH 10.11, 21° C.",0.0222 % w/v
same,Soluble Brimonidine tartrate (FIG. 1),"[3]; pH 7.5, 0% CMC",1000 ppm
same,Soluble Brimonidine tartrate (FIG. 1),"[3]; pH 7.5, 0.056% CMC",1300 ppm
same,Soluble Brimonidine tartrate (FIG. 1),"[3]; pH 7.5, 0.17% CMC",1300 ppm
same,Soluble Brimonidine tartrate (FIG. 1),"[3]; pH 7.5, 0.5% CMC",1600 ppm
same,Soluble Brimonidine tartrate (FIG. 1),"[3]; pH 7.5, 1.5% CMC",about 1400 ppm
same,"Formation of dimers, by apparent molecular weights of brimonidine in solution",[4],a portion of the brimonidine tartrate monomer units have conjugated to form dimmers
